Values quoted from earlier work as cited in patent publication US5990277A, “Semipeptoid farnesyl protein transferase inhibitors and analogs thereof” (Yissum Research Development Company of the Herbrew …, priority 1996, dated 1999).

Assays:
[1] = system: met18b-2 cells; details: cited from earlier work
[2] = biological target: farnesyl protein transferase (Homo sapiens, UniProt P49354+P49356); details: literature; cited from earlier work
[3] = system: MMTV-v-Ha-ras transgenic mice bearing palpable tumors; details: daily administration; cited from earlier work
[4] = system: Ras processing in cells transformed with v-ras; details: cited from earlier work
[5] = system: v-ras-transformed cells; details: cited from earlier work
[6] = system: cells transformed by either v-raf or v-mos oncogenes; details: cited from earlier work
[7] = system: RatI cells transformed with viral H-ras; details: cited from earlier work
[8] = system: human adenocarcinoma cell line PSN-1; details: PSN-1 cells, altered K-ras and p53 genes; cited from earlier work
[9] = system: tumors in nude mice; details: cited from earlier work
[10] = system: protein farnesyl transferase in cells; details: cited from earlier work

COC(=O)[C@H](CCSC)NC(=O)CN1C(=O)C(N(C)C(=O)[C@@H](N)CS)N=C(c2ccccc2)c2ccccc21 (stereo partly drawn) [BZA-5B]
inhibitory potency in cells versus parent compound BZA-2B [1]: much more potent inhibitor

CC[C@H](C)[C@@H](CO[C@@H](Cc1ccccc1)C(=O)N[C@@H](CCS(C)(=O)=O)C(=O)OC(C)C)NC[C@@H](N)CS [L-744,832]
farnesyl protein transferase inhibitory potency in vitro [2]: potent and selective inhibitor | tumor response [3]: caused tumor regression

CC[C@H](C)[C@H](NC[C@@H](NC[C@@H](N)CS)[C@@H](C)CC)C(=O)NC1CCOC1=O (stereo partly drawn) [L-731,734, N-{2(S)-[2(R)-amino-3-mercaptopropylamino]-3(S)-methylpentyl}isoleucyl-homoserine lactone]
farnesyl protein transferase inhibitory potency in vitro [2]: less potent | effect on Ras processing in cells [4]: efficiently inhibit Ras processing | colony formation in soft agar [5]: decreasing the ability of v-ras-transformed cells to form colonies | efficiency of colony transformation [6]: no effect on the efficiency of colony transformation

CC[C@H](C)[C@@H](CO[C@@H](Cc1ccccc1)C(=O)N[C@@H](CCS(C)(=O)=O)C(=O)OC)NC[C@@H](N)CS [L-739,749]
farnesyl protein transferase inhibitory potency in vitro [2]: moderate inhibitor | anchorage-independent growth [7]: suppressing the anchorage-independent growth | anchorage-independent growth [8]: inhibit the anchorage-independent growth | growth of tumors [9]: suppress the growth of tumors | inhibitory activity in cells compared to compound L-739,750 [10]: superior inhibitory activity
